Experimental data: patent US20180344725A1, “QUINOLONE CHALCONE COMPOUNDS AND USES THEREOF” (priority 2015, published 2018)

Columns and labels:
Assay type in all cases: cell-based
[1] = system: MDA-MB231TaxR; assay: SRB-based cytotoxicity assay, single and combination with paclitaxel; conditions: for killing of MDA-MB231TaxR compared with parental MDA-MB231: TaxR selected in 100.0 nM paclitaxel
Method: All of the cell lines used were purchased from ATCC and cultured in RPMI-1640 supplemented with 10% fetal bovine serum and antibiotics (100 units penicillin/100 μg/ml streptomycin), unless stated otherwise. 1845B5 and MCF-10A non-cancer breast cell lines were cultured in DME/F12 medium supplemented with 10% fetal bovine serum, antibiotics and growth factors. […] The human small cell lung carcinoma H69 cell line and its multidrug-resistant MRP1-overexpressing isogenic H69AR cell line were purchased from ATCC. […] H69 cells grow as large multi-cell aggregates, making it difficult to accurately count cell numbers. […] The IL-6 dependent bortezomib-resistant ANBL6-BR cell line was further supplemented with 1 ng/ml of IL-6. The MCF10AT1 and MCF10CA1a cell lines are isogenic to the MCF10A cell line, and obtained from Dr. Valerie Weaver at the Center for Bioengineering and Tissue Regeneration, UCSF, CA, USA. MCF10AT1 is a premalignant cell line generated by transforming MCF10A with c-Ha-Ras; and MCF10CA1a was isolated by selecting malignant cells after MCF10AT1 cells were engrafted into mice (Liu & Lin 2004; […] et al. 2009). […] The drug-resistant cells were cultured in the absence of drug for at least one passage before carrying out experiments. All cells were maintained in a humidified incubator at 37° C. […] Cell line authentication was performed using short tandem repeat (STR) profiling. For (anti)proliferation assays, 4,000-5,000 cells/well of the 96-well clustered dish were incubated for 16 hours, as described previously (Hu et al., 2008; Skehan et al., 1990). […] Some wells were treated with 100 μl of 10% trichloroacetic acid (TCA) as a negative control and sham (medium with dimethyl sulfoxide; DMSO) treated cells were used as a positive control. […] TCA was removed and cells were washed with cold tap water, and plate was air-dried, followed by addition of 50 μl of 0.4% SRB staining solution to each well. After 30 minutes incubation, SRB staining solution was removed. Cells were washed with 1% acetic acid solution, and then washed with tap water to remove unbound staining solution, followed by air-drying. 200 μl of 10 mM (pH10.5) trizma base buffer was added to each well to solubilise macromolecules. […] Cell growth (inhibition) was calculated by the following formula: % cells proliferation=[(AT-CT)/(ST-CT)]×100 wherein AT=absorbance of treated cells, CT=absorbance of negative control cells, and ST=absorbance of sham treated cells. […] The combinational index (CI) was calculated as described previously (Chou 2006). […] CI values were determined from four independent experiments.

[2] = system: RPMI-8226 (myeloma); assay: SRB-based cytotoxicity assay; conditions: 72 hours
Method: (§1) For (anti)proliferation assays, 4,000-5,000 cells/well of the 96-well clustered dish were incubated for 16 hours, as described previously (Hu et al., 2008; Skehan et al., 1990). After 16 hours, culture medium was replaced with fresh medium containing different dilutions of test compounds dissolved in DMSO. Some wells were treated with 100 μl of 10% trichloroacetic acid (TCA) as a negative control and sham (medium with dimethyl sulfoxide; DMSO) treated cells were used as a positive control. After 72 hours post-incubation, medium was removed and cells were fixed with 10% TCA at 4° C. for 1 hour. TCA was removed and cells were washed with cold tap water, and plate was air-dried, followed by addition of 50 μl of 0.4% SRB staining solution to each well. After 30 minutes incubation, SRB staining solution was removed. Cells were washed with 1% acetic acid solution, and then washed with tap water to remove unbound staining solution, followed by air-drying. 200 μl of 10 mM (pH10.5) trizma base buffer was added to each well to solubilise macromolecules. SRB stained macromolecules were determined at a 540 nm wavelength using an automated plate reader (Synergy H4 Hybrid Multi-Mode Microplate Reader, BioTek, Winooski, Vt.). Cell growth (inhibition) was calculated by the following formula:
(§2) % cells proliferation=[(AT−CT)/(ST−CT)]×100
(§3) wherein AT=absorbance of treated cells, CT=absorbance of negative control cells, and ST=absorbance of sham treated cells. IC50 values were calculated from sigmoidal dose-response curves generated by two independent biological replicates, with quadruplicate in each set by using Graph Pad Prism v.5.04 software. […] The combinational index (CI) was calculated as described previously (Chou 2006). If the CI values were less than, equal to or more than 1, it indicates a synergistic, additive or antagonistic effect respectively (Chou 2006). CI values were determined from four independent experiments.

[3] = system: 184B5; assay: SRB-based cytotoxicity assay; conditions: Homo sapiens, 184B5 non-cancer
Method: as §1, §2, §3

[4] = system: MCF-10A; assay: SRB-based cytotoxicity assay; conditions: for IC50: Homo sapiens; for Cell survival rate: MCF10A, 0.39 μM
Method: as §1, §2, §3

[5] = system: HeLa; assay: SRB-based cytotoxicity assay; conditions: for IC50: HeLa
Method: as §1, §2, §3

[6] = MCF-10A non-cancer, SRB, Table 2
[7] = MCF-10A, MCF10A non-cancer, 72 hours, Table 4

| Compound | killing of MDA-MB231TaxR compared with parental MDA-MB231 [1] | IC50 ([2]; Homo sapiens) | IC50 ([3]; SRB, Table 2) | IC50 [4, 6] | Cell survival rate ([4]; 72 hours) | IC50 ([5]; Homo sapiens, SRB, Table 2) | Cell survival rate ([1]; single agent 23.4 nM) | IC50 ([2]; Table 4) | IC50 ([3]; 72 hours, Table 4) | IC50 [4, 7] | IC50 ([5]; 72 hours, Table 4) | also measured |
| --- | --- | --- | --- | --- | --- | --- | --- | --- | --- | --- | --- | --- |
| COc1ccccc1C(=O)/C=C/c1cc2ccccc2[nH]c1=O [CTR-17, (E)-3-(3-(2-Methoxyphenyl)-3-oxoprop-1-enyl)quinolin-2(1H)-one] | to the same degree as the parental MDA-MB231 cells | 360 ± 40 nM | 3490 ± 30 nM | 3950 ± 140 nM | 95% | 330 ± 60 nM |  |  |  |  |  |  |
| COc1ccccc1C(=O)/C=C/c1cc2cccc(OC)c2[nH]c1=O [CTR-21, (E)-8-methoxy-3-(3-(2-methoxyphenyl)-3-oxoprop-1-enyl) quinolin-2(1H)-one] | to the same degree as the parental MDA-MB231 cells |  |  |  |  |  | 52.10 ± 3.71 | 5.34 ± 0.89 nM | 37 ± 2.5 nM | 20.3 ± 2.47 nM | 11.9 ± 1.4 nM |  |
| COc1ccc2[nH]c(=O)c(/C=C/C(=O)c3ccccc3OC)cc2c1 [CTR-20, (E)-6-Methoxy-3-(3-(2-methoxyphenyl)-3-oxoprop-1-enyl) quinolin-2(1H)-one] | to the same degree as the parental MDA-MB231 cells | 230 nM | 1240 ± 60 nM | 2370 ± 210 nM | 75% | 100 ± 20 nM |  |  |  |  |  | Cell survival rate ([1]; single agent 0.3 μM): 63.7 ± 2.52; preferentially kill cancer over non-cancer cells ([5]; HeLa versus MCF-10A): ≤ 24 times |
| CCOc1ccccc1C(=O)/C=C/c1cc2ccccc2[nH]c1=O [CTR-32, (E)-3-(3-(2-ethoxyphenyl)-3-oxoprop-1-enyl)quinolin-2(1H)-one] | to the same degree as the parental MDA-MB231 cells |  |  |  |  |  | 53.07 ± 6.50 | 6.29 ± 1.43 nM | 52 ± 7.35 nM | 30.1 ± 1.61 nM | 12.9 ± 0.35 nM |  |
| CC(=O)O[C@H]1C(=O)[C@@]2(C)[C@H]([C@H](OC(=O)c3ccccc3)[C@]3(O)C[C@H](OC(=O)[C@H](O)[C@@H](NC(=O)c4ccccc4)c4ccccc4)C(C)=C1C3(C)C)[C@]1(OC(C)=O)CO[C@@H]1C[C@@H]2O [Paclitaxel, reference compound] |  |  |  |  |  |  |  |  |  |  |  | Cell survival rate ([1]; single agent 18.75 nM): 95.84 ± 1.86; Cell survival rate ([1]; single agent 37.5 nM): 90.28 ± 3.58; Cell survival rate ([1]; single agent 75.0 nM): 90.98 ± 4.49; Cell survival rate ([1]; single agent 150 nM): 82.41 ± 5.00; Cell survival rate ([1]; single agent 300 nM): 57.75 ± 3.78 |
